Source: publication PMC6409085, “Three odorant-binding proteins are involved in the behavioral response of Sogatella furcifera to rice plant volatiles” (PeerJ, 2019)
Values joined by “and” are separate entries in the source; they are usually repeats but may differ in a detail not shown here. Identical values can stand only once.

Assays:
[1] = target: SfurOBP3 (Sogatella furcifera, UniProt V5T818); assay: biochemical; assay type: binding; conditions: for Fluorescence competitive binding assay, fluorescence intensity: OBP3, three replicate columns
Method in brief: (§1)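 In 50 mM Tris-HCl pH 7.4, odorants displace 1-NPN (2.0 µM) from 2.0 µM protein. Emission at 390–490 nm under 337 nm excitation is measured 2 min after competitor addition, in triplicate. Ki is obtained from IC50 and the 1-NPN dissociation constant.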

[2] = target: SfurOBP2 (Sogatella furcifera, UniProt V5T759); assay: biochemical; assay type: binding
Method in brief: as §1

[3] = target: SfurOBP11 (Sogatella furcifera, UniProt V5T6E3); assay: biochemical; assay type: binding
Method in brief: as §1

[4] = target: SfurOBP1 (Sogatella furcifera, UniProt V5T8N5); assay: biochemical; assay type: binding; conditions: for Fluorescence competitive binding assay, fluorescence intensity: OBP1, three replicate columns
Method in brief: as §1

[5] = test system: S. furcifera adults; assay: Y-tube olfactometer behavioral trials; assay type: in vivo, Sogatella furcifera; conditions: odorant 50 µL/L vs hexane; adults
Method in brief: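 Single S. furcifera adults (2 days post-emergence, starved 0.5 h) chose between odorant (100 µL of 50 µL/L on filter paper) and hexane control in a glass Y-tube, charcoal-filtered humidified air 300 mL/min per arm, 25 ± 1 °C, 50% RH. Choice scored if insect passed half an arm and stayed >1 min within 10 min; 45 insects per compound, chi-squared test.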

Sequence of SfurOBP2 (V5T759 entry or part of it): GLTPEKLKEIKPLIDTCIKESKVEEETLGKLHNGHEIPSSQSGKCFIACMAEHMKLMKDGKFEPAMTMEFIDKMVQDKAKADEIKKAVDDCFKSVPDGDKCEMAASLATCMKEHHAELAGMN
Sequence of SfurOBP1 (V5T8N5 entry or part of it): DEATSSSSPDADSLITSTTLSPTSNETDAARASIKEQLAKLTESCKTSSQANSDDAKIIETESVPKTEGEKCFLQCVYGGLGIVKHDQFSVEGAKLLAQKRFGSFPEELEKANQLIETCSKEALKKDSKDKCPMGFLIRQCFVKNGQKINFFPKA
Sequence of SfurOBP11 (V5T6E3 entry or part of it): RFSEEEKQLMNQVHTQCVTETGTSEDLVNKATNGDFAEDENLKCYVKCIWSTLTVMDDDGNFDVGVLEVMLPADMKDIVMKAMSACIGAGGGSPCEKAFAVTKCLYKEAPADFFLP
Sequence of SfurOBP3 (V5T818 entry or part of it): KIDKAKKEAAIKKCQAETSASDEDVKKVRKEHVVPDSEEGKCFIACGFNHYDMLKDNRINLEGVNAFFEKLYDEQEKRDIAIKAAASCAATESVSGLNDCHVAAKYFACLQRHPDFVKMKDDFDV

SMILES: CCCCCCCCCCCCCCCCCCC [n-nonadecane]
- Fluorescence competitive binding assay, fluorescence intensity ([1]; ligand concentration 2): 81706 and 89895 and 90926
- Fluorescence competitive binding assay, fluorescence intensity ([1]; ligand concentration 4): 92466 and 96932 and 93745
- Fluorescence competitive binding assay, fluorescence intensity ([1]; ligand concentration 6): 84153 and 91141 and 92184
- Fluorescence competitive binding assay, fluorescence intensity ([1]; ligand concentration 8): 88550 and 83959 and 85903
- Fluorescence competitive binding assay, fluorescence intensity ([1]; ligand concentration 10): 84955 and 81246 and 84347
- Fluorescence competitive binding assay, fluorescence intensity ([1]; ligand concentration 12): 79099 and 81968 and 85076
- Fluorescence competitive binding assay, fluorescence intensity ([1]; ligand concentration 14): 78930 and 78937 and 80614
- Fluorescence competitive binding assay, fluorescence intensity ([1]; ligand concentration 16): 67688 and 71739 and 72376
- Fluorescence competitive binding assay, fluorescence intensity ([1]; ligand concentration 18): 93819 and 87996 and 91999
- Fluorescence competitive binding assay, fluorescence intensity ([1]; ligand concentration 20): 87679 and 80588 and 71651
- IC50 ([1]; SfurOBP3, protein and 1-NPN both 2.0 µM, competitor 2-20 µM, read-out: IC50): > 20 µM
- IC50 ([2]; SfurOBP2, protein and 1-NPN both 2.0 µM, competitor 2-20 µM, read-out: IC50): > 20 µM
- Fluorescence competitive binding assay, OBP2 (raw fluorescence reading) ([2]; ligand concentration 2 (unit not given), replicate column 1 of 3): 22779
- Fluorescence competitive binding assay, OBP2 (raw fluorescence reading) ([2]; ligand concentration 2 (unit not given), replicate column 2 of 3): 20086
- Fluorescence competitive binding assay, OBP2 (raw fluorescence reading) ([2]; ligand concentration 2 (unit not given), replicate column 3 of 3): 21018
- Fluorescence competitive binding assay, OBP2 (raw fluorescence reading) ([2]; ligand concentration 4 (unit not given), replicate column 1 of 3): 21686
- Fluorescence competitive binding assay, OBP2 (raw fluorescence reading) ([2]; ligand concentration 4 (unit not given), replicate column 2 of 3): 22088
- Fluorescence competitive binding assay, OBP2 (raw fluorescence reading) ([2]; ligand concentration 4 (unit not given), replicate column 3 of 3): 20918
- Fluorescence competitive binding assay, OBP2 (raw fluorescence reading) ([2]; ligand concentration 6 (unit not given), replicate column 1 of 3): 24120
- Fluorescence competitive binding assay, OBP2 (raw fluorescence reading) ([2]; ligand concentration 6 (unit not given), replicate column 2 of 3): 23625
- Fluorescence competitive binding assay, OBP2 (raw fluorescence reading) ([2]; ligand concentration 6 (unit not given), replicate column 3 of 3): 22791
- Fluorescence competitive binding assay, OBP2 (raw fluorescence reading) ([2]; ligand concentration 8 (unit not given), replicate column 1 of 3): 22496
- Fluorescence competitive binding assay, OBP2 (raw fluorescence reading) ([2]; ligand concentration 8 (unit not given), replicate column 2 of 3): 24832
- Fluorescence competitive binding assay, OBP2 (raw fluorescence reading) ([2]; ligand concentration 8 (unit not given), replicate column 3 of 3): 23266
- Fluorescence competitive binding assay, OBP2 (raw fluorescence reading) ([2]; ligand concentration 10 (unit not given), replicate column 1 of 3): 22518
- Fluorescence competitive binding assay, OBP2 (raw fluorescence reading) ([2]; ligand concentration 10 (unit not given), replicate column 2 of 3): 23515
- Fluorescence competitive binding assay, OBP2 (raw fluorescence reading) ([2]; ligand concentration 10 (unit not given), replicate column 3 of 3): 22157
- Fluorescence competitive binding assay, OBP2 (raw fluorescence reading) ([2]; ligand concentration 12 (unit not given), replicate column 1 of 3): 23732
- Fluorescence competitive binding assay, OBP2 (raw fluorescence reading) ([2]; ligand concentration 12 (unit not given), replicate column 2 of 3): 24191
- Fluorescence competitive binding assay, OBP2 (raw fluorescence reading) ([2]; ligand concentration 12 (unit not given), replicate column 3 of 3): 22198
- Fluorescence competitive binding assay, OBP2 (raw fluorescence reading) ([2]; ligand concentration 14 (unit not given), replicate column 1 of 3): 22713
- Fluorescence competitive binding assay, OBP2 (raw fluorescence reading) ([2]; ligand concentration 14 (unit not given), replicate column 2 of 3): 20356
- Fluorescence competitive binding assay, OBP2 (raw fluorescence reading) ([2]; ligand concentration 14 (unit not given), replicate column 3 of 3): 21973
- Fluorescence competitive binding assay, OBP2 (raw fluorescence reading) ([2]; ligand concentration 16 (unit not given), replicate column 1 of 3): 21871
- Fluorescence competitive binding assay, OBP2 (raw fluorescence reading) ([2]; ligand concentration 16 (unit not given), replicate column 2 of 3): 23043
- Fluorescence competitive binding assay, OBP2 (raw fluorescence reading) ([2]; ligand concentration 16 (unit not given), replicate column 3 of 3): 23038
- Fluorescence competitive binding assay, OBP2 (raw fluorescence reading) ([2]; ligand concentration 18 (unit not given), replicate column 1 of 3): 25864
- Fluorescence competitive binding assay, OBP2 (raw fluorescence reading) ([2]; ligand concentration 18 (unit not given), replicate column 2 of 3): 26767
- Fluorescence competitive binding assay, OBP2 (raw fluorescence reading) ([2]; ligand concentration 18 (unit not given), replicate column 3 of 3): 25338
- Fluorescence competitive binding assay, OBP2 (raw fluorescence reading) ([2]; ligand concentration 20 (unit not given), replicate column 1 of 3): 26712
- Fluorescence competitive binding assay, OBP2 (raw fluorescence reading) ([2]; ligand concentration 20 (unit not given), replicate column 2 of 3): 23676
- Fluorescence competitive binding assay, OBP2 (raw fluorescence reading) ([2]; ligand concentration 20 (unit not given), replicate column 3 of 3): 24323
- IC50 ([3]; SfurOBP11, protein and 1-NPN both 2.0 µM, competitor 2-20 µM, read-out: IC50): > 20 µM
- Fluorescence intensity, fluorescence competitive binding assay, OBP11 ([3]; ligand concentration 2, replicate 1): 39005
- Fluorescence intensity, fluorescence competitive binding assay, OBP11 ([3]; ligand concentration 2, replicate 2): 36085
- Fluorescence intensity, fluorescence competitive binding assay, OBP11 ([3]; ligand concentration 2, replicate 3): 36144
- Fluorescence intensity, fluorescence competitive binding assay, OBP11 ([3]; ligand concentration 4, replicate 1): 38725
- Fluorescence intensity, fluorescence competitive binding assay, OBP11 ([3]; ligand concentration 4, replicate 2): 39209
- Fluorescence intensity, fluorescence competitive binding assay, OBP11 ([3]; ligand concentration 4, replicate 3): 36494
- Fluorescence intensity, fluorescence competitive binding assay, OBP11 ([3]; ligand concentration 6, replicate 1): 38941
- Fluorescence intensity, fluorescence competitive binding assay, OBP11 ([3]; ligand concentration 6, replicate 2): 37869
- Fluorescence intensity, fluorescence competitive binding assay, OBP11 ([3]; ligand concentration 6, replicate 3): 35504
- Fluorescence intensity, fluorescence competitive binding assay, OBP11 ([3]; ligand concentration 8, replicate 1): 38326
- Fluorescence intensity, fluorescence competitive binding assay, OBP11 ([3]; ligand concentration 8, replicate 2): 38320
- Fluorescence intensity, fluorescence competitive binding assay, OBP11 ([3]; ligand concentration 8, replicate 3): 34260
- Fluorescence intensity, fluorescence competitive binding assay, OBP11 ([3]; ligand concentration 10, replicate 1): 39470
- Fluorescence intensity, fluorescence competitive binding assay, OBP11 ([3]; ligand concentration 10, replicate 2): 35190
- Fluorescence intensity, fluorescence competitive binding assay, OBP11 ([3]; ligand concentration 10, replicate 3): 34723
- Fluorescence intensity, fluorescence competitive binding assay, OBP11 ([3]; ligand concentration 12, replicate 1): 35740
- Fluorescence intensity, fluorescence competitive binding assay, OBP11 ([3]; ligand concentration 12, replicate 2): 35339
- Fluorescence intensity, fluorescence competitive binding assay, OBP11 ([3]; ligand concentration 12, replicate 3): 34546
- Fluorescence intensity, fluorescence competitive binding assay, OBP11 ([3]; ligand concentration 14, replicate 1): 33030
- Fluorescence intensity, fluorescence competitive binding assay, OBP11 ([3]; ligand concentration 14, replicate 2): 32494
- Fluorescence intensity, fluorescence competitive binding assay, OBP11 ([3]; ligand concentration 14, replicate 3): 31487
- Fluorescence intensity, fluorescence competitive binding assay, OBP11 ([3]; ligand concentration 16, replicate 1): 29383
- Fluorescence intensity, fluorescence competitive binding assay, OBP11 ([3]; ligand concentration 16, replicate 2): 30154
- Fluorescence intensity, fluorescence competitive binding assay, OBP11 ([3]; ligand concentration 16, replicate 3): 29504
- Fluorescence intensity, fluorescence competitive binding assay, OBP11 ([3]; ligand concentration 18, replicate 1): 32894
- Fluorescence intensity, fluorescence competitive binding assay, OBP11 ([3]; ligand concentration 18, replicate 2): 34140
- Fluorescence intensity, fluorescence competitive binding assay, OBP11 ([3]; ligand concentration 18, replicate 3): 29208
- Fluorescence intensity, fluorescence competitive binding assay, OBP11 ([3]; ligand concentration 20, replicate 1): 31537
- Fluorescence intensity, fluorescence competitive binding assay, OBP11 ([3]; ligand concentration 20, replicate 2): 29929
- Fluorescence intensity, fluorescence competitive binding assay, OBP11 ([3]; ligand concentration 20, replicate 3): 28655
- Fluorescence competitive binding assay, fluorescence intensity ([4]; ligand concentration 2 (μM)): 5361 and 5140 and 5582
- Fluorescence competitive binding assay, fluorescence intensity ([4]; ligand concentration 4 (μM)): 6690 and 6608 and 6742
- Fluorescence competitive binding assay, fluorescence intensity ([4]; ligand concentration 6 (μM)): 8870 and 9897 and 7869
- Fluorescence competitive binding assay, fluorescence intensity ([4]; ligand concentration 8 (μM)): 7482 and 6593 and 11079
- Fluorescence competitive binding assay, fluorescence intensity ([4]; ligand concentration 10 (μM)): 7327 and 7941 and 8862
- Fluorescence competitive binding assay, fluorescence intensity ([4]; ligand concentration 12 (μM)): 8260 and 9027 and 8555
- Fluorescence competitive binding assay, fluorescence intensity ([4]; ligand concentration 14 (μM)): 9439 and 7708 and 9780
- Fluorescence competitive binding assay, fluorescence intensity ([4]; ligand concentration 16 (μM)): 8450 and 9204 and 7552
- Fluorescence competitive binding assay, fluorescence intensity ([4]; ligand concentration 18 (μM)): 9810 and 13450 and 9951
- Fluorescence competitive binding assay, fluorescence intensity ([4]; ligand concentration 20 (μM)): 10406 and 10007 and 8824
- IC50 ([4]; SfurOBP1, protein and 1-NPN both 2.0 µM, competitor 2-20 µM, read-out: IC50): > 20 µM
- number of insects choosing hexane arm [5]: 13
- number of insects choosing volatilies arm [5]: 15
- number of insects failed (no choice) [5]: 12
